Where “and” joins values, the source holds several entries; their conditions need not be identical. Equal values may be shown once. Inconclusive results and toxic doses are left out.

This test relates to L1210 leukemia ip in BDF1 mice, survival T/C. The test can be described thus: NCI In Vivo Anticancer Drug Screen. Data for tumor model L1210 Leukemia (intraperitoneal) in B6D2F1 (BDF1) mice. The note with it: endpoint: mean survival time, higher = longer survival. The procedure, abridged: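 Ratio derived from survival: compound-dosed mice over vehicle-dosed mice, all bearing a transplantable tumor.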

Where [1] appears, read: dose: 100.0 mg/kg/injection, schedule: Q01DX001 (ip), vehicle: carboxymethylcellulose (CMC).
The mark [2] stands for this setting: dose: 100.0 mg/kg/injection, schedule: Q01DX009 (ip), vehicle: saline.
The mark [3] stands for this setting: dose: 200.0 mg/kg/injection, schedule: Q01DX001 (ip), vehicle: carboxymethylcellulose (CMC).
The mark [4] stands for this setting: dose: 200.0 mg/kg/injection, schedule: Q01DX009 (ip), vehicle: saline.
The mark [5] stands for this setting: dose: 400.0 mg/kg/injection, schedule: Q01DX001 (ip), vehicle: carboxymethylcellulose (CMC).
The mark [6] stands for this setting: dose: 100.0 mg/kg/injection, schedule: Q01DX001 (ip), vehicle: saline.
[7] abbreviates: dose: 200.0 mg/kg/injection, schedule: Q01DX001 (ip), vehicle: saline.
Where [8] appears, read: dose: 400.0 mg/kg/injection, schedule: Q01DX001 (ip), vehicle: saline.
The mark [9] stands for this setting: dose: 100.0 mg/kg/injection, schedule: Q04DX003 (ip), vehicle: saline with Tween-80.
Where [10] appears, read: dose: 200.0 mg/kg/injection, schedule: Q04DX003 (ip), vehicle: saline with Tween-80.
Where [11] appears, read: dose: 50.0 mg/kg/injection, schedule: Q04DX002 (ip), vehicle: saline with Tween-80.
The mark [12] stands for this setting: dose: 50.0 mg/kg/injection, schedule: Q01DX009 (ip), vehicle: saline.
The mark [13] stands for this setting: dose: 100.0 mg/kg/injection, schedule: Q01DX009 (ip), vehicle: Klucel (hydroxypropylcellulose) (HPC).
Where [14] appears, read: dose: 100.0 mg/kg/injection, schedule: Q04DX003 (ip), vehicle: saline.
Setting [15] is: dose: 100.0 mg/kg/injection, schedule: Q04DX002 (ip), vehicle: saline with Tween-80.
Where [16] appears, read: dose: 200.0 mg/kg/injection, schedule: Q04DX002 (ip), vehicle: saline with Tween-80.

With `CC(=O)Oc1ccc[nH]c1=O`, the T/C is, setting by setting: (dose: 75.0 mg/kg/injection, schedule: Q01DX001 (ip), vehicle: saline) 103 % of control; (dose: 75.0 mg/kg/injection, schedule: Q04DX003 (ip), vehicle: saline) 103 % of control; under setting [1], 100 % of control; (dose: 100.0 mg/kg/injection, schedule: Q01DX009 (ip), vehicle: carboxymethylcellulose (CMC)) 98 % of control; under setting [2], 101 % of control; (dose: 100.0 mg/kg/injection, schedule: Q01DX015 (ip), vehicle: saline) 102 % of control. Also, the T/C runs as follows: (dose: 150.0 mg/kg/injection, schedule: Q01DX001 (ip), vehicle: saline) 102 % of control; (dose: 150.0 mg/kg/injection, schedule: Q04DX003 (ip), vehicle: saline) 100 % of control; under setting [3], 97 % of control; (dose: 200.0 mg/kg/injection, schedule: Q01DX009 (ip), vehicle: carboxymethylcellulose (CMC)) 109 % of control; under setting [4], 114 % of control; (dose: 200.0 mg/kg/injection, schedule: Q01DX015 (ip), vehicle: saline) 124 % of control. For the same molecule, the T/C is 110 % of control (dose: 300.0 mg/kg/injection, schedule: Q01DX001 (ip), vehicle: saline); 113 % of control (dose: 300.0 mg/kg/injection, schedule: Q04DX003 (ip), vehicle: saline); 103 % of control under setting [5]; 153 % of control (dose: 400.0 mg/kg/injection, schedule: Q01DX009 (ip), vehicle: saline); 154 % of control (dose: 800.0 mg/kg/injection, schedule: Q01DX009 (ip), vehicle: carboxymethylcellulose (CMC)); 88 % of control (dose: 800.0 mg/kg/injection, schedule: Q01DX009 (ip), vehicle: saline).
For the molecule `OC1CC2C=CC1C2` (centres undefined), the T/C was 93 % of control under setting [1]; 107 % of control under setting [6]; 95 % of control under setting [3]; 88 % of control under setting [7]; 101 % of control under setting [5]; 109 % of control under setting [8].
For the molecule `CCOC(=O)c1c(-c2cc(OC)c(OC)c(OC)c2)csc1N`, the T/C was 95 % of control (dose: 50.0 mg/kg/injection, schedule: Q04DX003 (ip), vehicle: saline with Tween-80); 97 % of control under setting [9]; 87 % of control under setting [10]; 94 % of control (dose: 400.0 mg/kg/injection, schedule: Q04DX003 (ip), vehicle: saline with Tween-80).
Take `CCOC(=O)N1CCN(C(=O)OCC)CC1`: the T/C (dose: 50.0 mg/kg/injection, schedule: Q01DX009 (ip), vehicle: saline with Tween-80) was 95 % of control; the T/C (dose: 100.0 mg/kg/injection, schedule: Q01DX009 (ip), vehicle: saline with Tween-80) was 95 % of control; the T/C (dose: 200.0 mg/kg/injection, schedule: Q01DX009 (ip), vehicle: saline with Tween-80) is 95 % of control.
As to `COC(OC)C(Br)(Br)Br`, the T/C is 96 % of control under setting [6], 106 % of control under setting [7] and 100 % of control under setting [8].
For `COc1ccc(OC(C)=O)c2c1C(=O)OC(C)C2NC(=O)C(C)NC(C)=O` (centres undefined), the T/C is, setting by setting: (dose: 12.5 mg/kg/injection, schedule: Q04DX002 (ip), vehicle: saline with Tween-80) 103 % of control; (dose: 25.0 mg/kg/injection, schedule: Q04DX002 (ip), vehicle: saline with Tween-80) 107 % of control; under setting [11], 100 % of control.
As for `CCCCOP(=O)(Cc1cc(C)cc(C)c1)OCCCC`, the T/C is, setting by setting: under setting [9], 87 % of control; under setting [10], 101 % of control.
For the molecule `CC(C)=CCNC1=NCCN1`, the T/C runs as follows: (dose: 12.5 mg/kg/injection, schedule: Q01DX009 (ip), vehicle: saline) 91 % of control; (dose: 25.0 mg/kg/injection, schedule: Q01DX009 (ip), vehicle: saline) 94 % of control; under setting [12], 99 % of control.
On to `CCCCCCCCCCCCCCNC1=C(OC)C(=O)C(NCCCCCCCCCCCCCC)=C(OC)C1=O`, for which the T/C runs as follows: (dose: 100.0 mg/kg/injection, schedule: Q01DX001 (ip), vehicle: other) 95 % of control; (dose: 200.0 mg/kg/injection, schedule: Q01DX001 (ip), vehicle: other) 104 % of control; (dose: 400.0 mg/kg/injection, schedule: Q01DX001 (ip), vehicle: other) 90 % of control.
Consider `CC1(C)c2ccccc2C(=O)/C(=C/c2ccccc2)C1NC1CCCCC1` (centres undefined), for which the T/C (dose: 100.0 mg/kg/injection, schedule: Q01DX001 (ip), vehicle: Klucel (hydroxypropylcellulose) (HPC)) is 95 % of control; the T/C under setting [13] is 102 % of control; the T/C (dose: 200.0 mg/kg/injection, schedule: Q01DX001 (ip), vehicle: Klucel (hydroxypropylcellulose) (HPC)) is 93 % of control; the T/C (dose: 200.0 mg/kg/injection, schedule: Q01DX009 (ip), vehicle: Klucel (hydroxypropylcellulose) (HPC)) was 96 % of control; the T/C (dose: 400.0 mg/kg/injection, schedule: Q01DX001 (ip), vehicle: Klucel (hydroxypropylcellulose) (HPC)) is 92 % of control; the T/C (dose: 400.0 mg/kg/injection, schedule: Q01DX009 (ip), vehicle: Klucel (hydroxypropylcellulose) (HPC)) is 106 % of control.
Regarding `CCN(CC)CCN(C)CCN(CC)CC`, the T/C reads like this: under setting [12], 91 % of control; under setting [2], 102 % of control; under setting [14], 93 % of control; under setting [4], 101 % of control; (dose: 200.0 mg/kg/injection, schedule: Q04DX003 (ip), vehicle: saline) 98 % of control.
Take `O=C(O)COc1ccccc1`: the T/C was 108 % of control (dose: 25.0 mg/kg/injection, schedule: Q01DX009 (ip), vehicle: Klucel (hydroxypropylcellulose) (HPC)); 105 % of control (dose: 50.0 mg/kg/injection, schedule: Q01DX009 (ip), vehicle: Klucel (hydroxypropylcellulose) (HPC)); 93 % of control and 88 % of control under setting [13].
Consider `CN(C)C(=O)Nc1ccc(Cl)cc1Cl`, for which the T/C was 98 % of control under setting [15]; 110 % of control under setting [16]; 121 % of control (dose: 400.0 mg/kg/injection, schedule: Q04DX002 (ip), vehicle: saline with Tween-80).
For `O=C(COc1ccc(Cl)c(Cl)c1)NCc1ccc[n+](Cc2ccc(Cl)c(S(=O)(=O)F)c2)c1`, the T/C is 114 % of control (dose: 25.0 mg/kg/injection, schedule: Q04DX003 (ip), vehicle: saline); 118 % of control (dose: 50.0 mg/kg/injection, schedule: Q04DX003 (ip), vehicle: saline); 100 % of control and 112 % of control under setting [14].
Regarding `NC(N)=NCCCNCCCN=C(N)N`, the T/C is 100 % of control (dose: 17.5 mg/kg/injection, schedule: Q01DX Z (oral), vehicle: saline); 101 % of control (dose: 35.0 mg/kg/injection, schedule: Q01DX Z (oral), vehicle: saline); 114 % of control (dose: 70.0 mg/kg/injection, schedule: Q01DX Z (oral), vehicle: saline); 117 % of control (dose: 140.0 mg/kg/injection, schedule: Q01DX Z (oral), vehicle: saline).
Turning to `CC(N)C(=O)NCCCl` (centres undefined), the T/C (dose: 10.0 mg/kg/injection, schedule: Q01DX Z (ip), vehicle: saline) was 91 % of control; the T/C (dose: 30.0 mg/kg/injection, schedule: Q01DX Z (ip), vehicle: saline) is 104 % of control; the T/C (dose: 100.0 mg/kg/injection, schedule: Q01DX Z (ip), vehicle: saline) was 91 % of control; the T/C (dose: 300.0 mg/kg/injection, schedule: Q01DX Z (ip), vehicle: saline) is 93 % of control.
In the case of `O=[N+]([O-])c1ccc(N/N=C/C(O)C(O)C(O)CO)cc1` (centres undefined), the T/C was 106 % of control under setting [11], 106 % of control under setting [15] and 87 % of control under setting [16].
For `CC(=O)OCc1cc(=O)c(OC(C)=O)co1`, the T/C was 112 % of control (dose: 100.0 mg/kg/injection, schedule: Q04DX003 (ip), vehicle: Klucel (hydroxypropylcellulose) (HPC)); 96 % of control (dose: 200.0 mg/kg/injection, schedule: Q04DX003 (ip), vehicle: Klucel (hydroxypropylcellulose) (HPC)); 98 % of control (dose: 400.0 mg/kg/injection, schedule: Q04DX003 (ip), vehicle: Klucel (hydroxypropylcellulose) (HPC)).

(Values after PubChem BioAssay AID248 (DTP/NCI, 2004).)
